To fix the notation:
B1: Adenosine transporter 1 (Trypanosoma brucei), Q9Y0I0 (protein)
chain: MLGFDSANEFIVYVTFLFFGMSVVVVTNSIFSMPFFFIEYYKYAQGKPDAKPEDPKFWKHMFTYYSIAAFLVELVLASLMLTPIGRRISVTVRLGVGLVIPIVLVFSVMMVTIVTTTETGAKVTIMLIAIANGVAMTLCDAGNAALIAPFPTKFYSSVVWGIAVCGVVTSFFSIVIKASMGGGYHNMLIQSRIYFGLVMFMQVISCALLVLLRKNPYAQKYAAEFRYAARKGIDDKGADGDEGNGAAKGPADQDDDPHGGDDTDKGNVMTATVDPDTMKDMDQVENITTSQQMLMARVWNVFWRVWPMLFACFMVFFTTFLVYPAVYFAIKADTGDGWYLTIAAALFNLGDFLSRLCLQFKALHVSPRWVLIGTFARMLLIIPLVLCVRSIITGPWLPYILVHAWGFTYGYYGGISQIYAPRTGSLTTAGERSLAANWTIISLLGGIFVGAMFALAVNEGLPK

The target in one data set is T1, Adenosine transporter 1 (Trypanosoma brucei, UniProt Q9Y0I0).
T1 sequence (Q9Y0I0 whole entry): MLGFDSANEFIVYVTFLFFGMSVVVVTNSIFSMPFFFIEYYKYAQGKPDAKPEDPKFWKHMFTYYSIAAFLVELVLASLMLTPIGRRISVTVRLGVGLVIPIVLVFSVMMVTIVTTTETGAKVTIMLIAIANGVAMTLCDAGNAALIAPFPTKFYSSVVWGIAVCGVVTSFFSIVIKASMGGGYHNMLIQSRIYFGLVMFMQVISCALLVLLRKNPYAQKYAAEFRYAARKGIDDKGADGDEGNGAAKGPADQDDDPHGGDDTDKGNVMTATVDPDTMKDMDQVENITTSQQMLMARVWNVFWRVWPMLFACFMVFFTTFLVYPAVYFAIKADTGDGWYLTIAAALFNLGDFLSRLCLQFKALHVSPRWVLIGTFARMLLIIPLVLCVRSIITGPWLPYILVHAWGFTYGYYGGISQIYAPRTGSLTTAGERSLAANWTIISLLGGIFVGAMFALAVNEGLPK
Kind of data set: (§1) Compound was tested for inhibition of Adenosine transporter P2 type by using [2-3H]adenosine as radioligand in Trypanosoma equiperdum.
For orientation: Ki means a dissociation constant, usually derived from enzyme kinetics or from competition with a known ligand. The low end stands for higher affinity, the high end for lower affinity. On to `CC(=O)NC(C(=O)NC[C@H]1OC(n2cnc3c(N)ncnc32)[C@H](O)[C@@H]1O)C(C)(C)SN=O` (some centres not stated), for which the inhibition constant (Ki) was 3.47 µM.

For the molecule `Nc1ncnc2c1ncn2CCO[N+](=O)[O-]`, the affinity corresponds to a Ki of 1.9 µM.

In turn, `CC(=O)N[C@@H](C(=O)O)C(C)(C)SN=O` had a Ki greater than 1000 µM.

Turning to `Nc1ncnc2c1ncn2[C@@H]1O[C@H](CO[N+](=O)[O-])[C@@H](O)[C@H]1O`, the Ki is 12.3 µM.

`Nc1nc(N)nc(Nc2ccc(CCO[N+](=O)[O-])cc2)n1`: the Ki was 0.2 µM.

Molecule `CC(=O)NC(C(=O)Nc1ccc(N)nc1)C(C)(C)SN=O` (configuration not stated) displayed a Ki of 404 µM.

`NCCS[As](SCCN)c1ccc(Nc2nc(N)nc(N)n2)cc1` [CYMELARSEN] came in with an inhibition constant (Ki) of 22.9 µM.

In turn, `O=[N+]([O-])OCc1ccccc1` had a Ki greater than 1000 µM.

`Nc1nc(N)c2c(no[n+]2[O-])n1`: affinity was put at a Ki of 117 µM.

For `CC(=O)NC(C(=O)Nc1ccc(Nc2nc(N)nc(N)n2)cc1)C(C)(C)SN=O` (configuration not stated), the Ki amounted to 0.58 µM.

Consider `CC(=O)NC(C(=O)NCCn1cnc2c(N)ncnc21)C(C)(C)SN=O` (configuration not stated), for which the Ki worked out at 0.62 µM.

Compound in another data set: Nc1ncnc2c1ncn2[C@@H]1O[C@H](CO)[C@@H](O)[C@H]1O
The description is as §1.
For orientation: Km means the concentration of substrate that gives half-maximal velocity. As for B1, the Km stood at 0.7 µM.

For the origin of these results see ChEMBL document CHEMBL1133199, “Synthesis and uptake of nitric oxide-releasing drugs by the P2 nucleoside transporter in Trypanosoma equiperdum” (Bioorg Med Chem Lett, 2000).
